Structures are written as SMILES.

For one test, the system named is Aβ42. The test is described as follows: Screening for γ-secretase-modulating activity: Aβ42 in supernatant of SKNBE2 cells carrying hAPP 695 wild type (Alphalisa). Particulars: overnight incubation, Alphalisa on supernatant. It is filed as cell-based, human. In a few lines:
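SKNBE2 human neuroblastoma cells expressing wild-type hAPP 695 (10^4/well) were incubated overnight at 37 °C, 5% CO2 with compound at several concentrations. Supernatant Aβ42 and Aβtotal measured by AlphaLISA sandwich immunoassays; IC50 from 4-parameter fit of percent of untreated control versus log concentration.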

The test system of another test is Aβ38. The test is described as follows: In vivo efficacy B-2a: brain soluble Aβ38 in non-transgenic rodents, ELISA. Also noted: species or system mouse. Particulars: dose 30 mg/kg oral dosing, brain soluble fraction, untreated animals (Ctrl) set at 100; for response vs control in vivo at 30 mg/kg: Mus musculus, po, read-out: Aβ38 (% vs Ctrl)_Mean. From the text:
Aβ38 increasing agents can be administered in any standard form using any standard method. For example, but not limited to, Aβ38 increasing agents can be in the form of liquid, tablets or capsules that are taken orally or by injection.
To determine whether acute administration of an Aβ38 increasing agents would increase Aβ38 levels in vivo, non-transgenic rodents, e.g. mice or rats were used. Animals treated with the Aβ38 increasing agents were examined and compared to those untreated or treated with vehicle and brain levels of soluble Aβ38 and total Aβ were quantitated by standard techniques, for example, using ELISA. Treatment periods varied from hours (h) to days and were adjusted based on the results of the Aβ38 increase once a time course of onset of effect could be established.
A typical protocol for measuring Aβ38 increase in vivo is shown but it is only one of many variations that could be used to optimize the levels of detectable Aβ. For example, Aβ38 increasing agents were formulated in 20% of Captisol® (a sulfobutyl ether of β-cyclodextrin) in water or 20% hydroxypropyl β cyclodextrin. The Aβ38 increasing agents were administered as a single oral dose or by any acceptable route of administration to overnight fasted animals. After 4 h, the animals were sacrificed and Aβ38 levels were analysed.
Blood was collected by decapitation and exsanguinations in EDTA-treated collection tubes. Blood was centrifuged at 1900 g for 10 minutes (min) at 4° C. and the plasma recovered and flash frozen for later analysis. The brain was removed from the cranium and hindbrain. The cerebellum was removed and the left and right hemisphere were separated. The left hemisphere was stored at −18° C. for quantitative analysis of test compound levels. The right hemisphere was rinsed with phosphate-buffered saline (PBS) buffer and immediately frozen on dry ice and stored at −80° C. until homogenization for biochemical assays.
Mouse brains from non-transgenic animals were resuspended in 8 volumes of 0.4% DEA (diethylamine)/50 mM NaCl containing protease inhibitors (Roche-11873580001 or 04693159001) per gram of tissue, e.g. for 0.158 g brain, add 1.264 mL of 0.4% DEA. All samples were homogenized in the FastPrep-24 system (MP Biomedicals) using lysing matrix D (MPBio #6913-100) at 6 m/s for 20 seconds. Homogenates were centrifuged at 20800×g for 5 min and supernatants collected. Supernatants were centrifuged at 221.300×g for 50 min. The resulting high speed supernatants were then transferred to fresh eppendorf tubes. Nine parts of supernatant were neutralized with 1 part 0.5 M Tris-HCl pH 6.8 and used to quantify Aβtotal and Aβ38.
To quantify the amount of Aβtotal and Aβ38 in the soluble fraction of the brain homogenates, Enzyme-Linked-Immunosorbent-Assays were used. Briefly, the standards (a dilution of synthetic Aβ1-40 and Aβ1-38, ANASPEC) were prepared in 1.5 mL Eppendorf tube in Ultraculture, with final concentrations ranging from 10000 to 0.3 pg/mL. The samples and standards were co-incubated with HRPO-labelled N-terminal antibody for Aβ38 detection and with the biotinylated mid-domain antibody 4G8 for Aβtotal detection. 50 μl of conjugate/sample or conjugate/standards mixtures were then added to the antibody-coated plate (the capture antibodies selectively recognize the C-terminal end of Aβ38, antibody J&JPRD/Aβ38/5, for Aβ38 detection and the N-terminus of Aβ, antibody JRF/rAβ/2, for Aβtotal detection). The plate was allowed to incubate overnight at 4° C. in order to allow formation of the antibody-amyloid complex. Following this incubation and subsequent wash steps the ELISA for Aβ38 quantification was finished by addition of Quanta Blu fluorogenic peroxidase substrate according to the manufacturer's instructions (Pierce Corp., Rockford, Ill.). A reading was performed after 10 to 15 min (excitation 320 nm/emission 420 nm). […]

The mark [1] stands for this setting: Homo sapiens, SKNBE2, SKNBE2 human neuroblastoma cells carrying hAPP 695 wild type.
Setting [2] is: SKNBE2 human neuroblastoma cells carrying hAPP 695 wild type.

Regarding `Cc1cn(-c2ccc3[nH]c(-c4nc5n(n4)CCCC5c4ccc(F)cc4C)cc3c2)cn1` (stereo not drawn) [Compound 73, 8-(4-fluoro-2-methylphenyl)-5,6,7,8-tetrahydro-2-[5-(4-methyl-1H-imidazol-1-yl)-1H-indol-2-yl]-[1,2,4]triazolo[1,5-a]pyridine], the IC50 in the test on Aβ42 (setting [1]) is 43 nM. Besides, the response vs control in vivo at 30 mg/kg in the test with Aβ38 came to 120%.

The compound `Cc1cc(F)ccc1C1CCCn2cc(-c3cc4cc(C#N)ccc4[nH]3)nc21` (stereo not drawn) [Compound 4, 2-[8-(4-fluoro-2-methylphenyl)-5,6,7,8-tetrahydroimidazo[1,2-a]pyridin-2-yl]-1H-indole-5-carbonitrile] displayed a 50% inhibitory concentration (IC50) in the test on Aβ42 (setting [2]) of 87 nM. In addition, the “Aβ38 (% vs Ctrl)_Mean” value in the test with Aβ38 (30 mg/kg) was determined as 141 % vs Ctrl.

With `Cc1cn(-c2cc3cc(-c4nc5n(n4)CCCC5c4ccccc4C)[nH]c3cn2)cn1` (stereo not drawn) [Compound 30, 5,6,7,8-tetrahydro-2-[5-(4-methyl-1H-imidazol-1-yl)-1H-pyrrolo[2,3-c]pyridin-2-yl]-8-(2-methylphenyl)-[1,2,4]triazolo[1,5-a]pyridine], half-maximal inhibition in the test on Aβ42 (setting [1]) (IC50) was put at 52 nM. Also, the response vs control in vivo at 30 mg/kg with Aβ38 stood at 118%.

As to `COc1c(C#N)ccc2[nH]c(-c3nc4n(n3)CCCC4c3ccccc3C(F)(F)F)cc12` (stereo not drawn) [Compound 7, 4-methoxy-2-[5,6,7,8-tetrahydro-8-[2-(trifluoromethyl)phenyl][1,2,4]triazolo[1,5-a]pyridin-2-yl]-1H-indole-5-carbonitrile], in the test on Aβ42 (setting [1]), the half-inhibitory concentration (IC50) came out at 35 nM. Also, the response vs control in vivo at 30 mg/kg in the test on Aβ38 came out at 120%.

As to `Cc1cn(-c2ccc3[nH]c(-c4nc5n(n4)CCOC5c4ccc(F)cc4C)cc3c2)cn1` (stereo not drawn) [Compound 39, 8-(4-fluoro-2-methylphenyl)-5,6-dihydro-2-[5-(4-methyl-1H-imidazol-1-yl)-1H-indo-2-yl]-8H-[1,2,4]triazolo[5,1-c][1,4]oxazine], half-maximal inhibition in the test with Aβ42 (setting [2]) (IC50) required 38 nM. Further, the “Aβ38 (% vs Ctrl)_Mean” value in the test with Aβ38 is 132 % vs Ctrl.

For the compound `Cc1cn(-c2ccc3[nH]c(-c4nc5n(n4)CCCC5c4ccccc4C)cc3n2)cn1.Cl` (stereo not drawn) [Compound 5, 5,6,7,8-tetrahydro-2-[5-(4-methyl-1H-imidazol-1-yl)-1H-pyrrolo[3,2-b]pyridin-2-yl]-8-(2-methylphenyl)-[1,2,4]triazolo[1,5-a]pyridine], 105 nM corresponded to half-maximal inhibition with Aβ42 (setting [1]) (IC50). In addition, the response vs control in vivo at 30 mg/kg in the test with Aβ38 is 123%.

`Cc1ccccc1C1CCCn2nc(-c3cc4cc(C#N)ccc4[nH]3)nc21` (stereo not drawn) [Compound 12, 2-[5,6,7,8-tetrahydro-8-(2-methylphenyl)[1,2,4]triazolo[1,5-a]pyridin-2-yl]-1H-indole-5-carbonitrile]: in the test with Aβ42 (setting [2]), the IC50 amounted to 126 nM. Moreover, in the test with Aβ38 (30 mg/kg), the “Aβ38 (% vs Ctrl)_Mean” value was found to be 96 % vs Ctrl.

Consider `Cc1cn(-c2ccc3[nH]c(-c4nc5n(n4)CCCC5c4ccccc4C(F)(F)F)cc3c2)cn1` (stereo not drawn) [Compound 8, 5,6,7,8-tetrahydro-2-[5-(4-methyl-1H-imidazol-1-yl)-1H-indol-2-yl]-8-[2-(trifluoromethyl)phenyl]-[1,2,4]triazolo[1,5-a]pyridine], for which the 50% inhibitory concentration (IC50) in the test with Aβ42 (setting [1]) is 46 nM. Further, in the test on Aβ38, the response vs control in vivo at 30 mg/kg came to 181%.

Take `Cc1cc(F)ccc1C1OCCn2cc(-c3cc4cc(-c5cnn(C)c5)ccc4[nH]3)nc21` (stereo not drawn) [Compound 99, 8-(4-fluoro-2-methylphenyl)-5,6-dihydro-2-[5-(1-methyl-1H-pyrazol-4-yl)-1H-indol-2-yl]-8H-imidazo[2,1-c][1,4]oxazine]: the concentration for half-maximal inhibition (IC50) in the test with Aβ42 (setting [1]) turned out to be 78 nM. For the same compound, in the test on Aβ38, the response vs control in vivo at 30 mg/kg worked out at 96%.

Compound `Cc1cc(F)ccc1C1CCCn2nc(-c3[nH]c4ccc(C#N)cc4c3F)nc21` (single isomer, unassigned) [Compound 182, 3-fluoro-2-[8-(4-fluoro-2-methylphenyl)-5,6,7,8-tetrahydro[1,2,4]triazolo[1,5-a]pyridin-2-yl]-1H-indole-5-carbonitrile] showed an IC50 in the test with Aβ42 (setting [2]) of 117 nM. The response vs control in vivo at 30 mg/kg in the test with Aβ38 was 132%.

On to `Cc1cc(-c2ccc3[nH]c(-c4nc5n(n4)CCCC5c4ccccc4C)cc3n2)ccn1` (stereo not drawn) [Compound 6, 5,6,7,8-tetrahydro-8-(2-methylphenyl)-2-[5-(2-methyl-4-pyridinyl)-1H-pyrrolo[3,2-b]pyridin-2-yl]-[1,2,4]triazolo[1,5-a]pyridine], for which the 50% inhibitory concentration (IC50) in the test with Aβ42 (setting [1]) was 47 nM. For the same compound, in the test with Aβ38, the response vs control in vivo at 30 mg/kg was 78%.

As for `Cc1cc(F)ccc1C1OCCn2cc(-c3cc4nc(-c5cnn(C)c5)ccc4[nH]3)nc21` (single isomer, unassigned) [Compound 102, 8-(4-fluoro-2-methylphenyl)-5,6-dihydro-2-[5-(1-methyl-1H-pyrazol-4-yl)-1H-pyrrolo[3,2-b]pyridin-2-yl]-8H-imidazo[2,1-c][1,4]oxazine], the IC50 with Aβ42 (setting [2]) worked out at 89 nM. Further, in the test on Aβ38, the response vs control in vivo at 30 mg/kg came out at 82%.

Compound `N#Cc1ccc2[nH]c(-c3nc4n(n3)CCCC4c3cccc(OC(F)(F)F)c3)cc2c1` (stereo not drawn) [Compound 20, 2-[5,6,7,8-tetrahydro-8-[3-(trifluoromethoxy)phenyl][1,2,4]triazolo[1,5-a]pyridin-2-yl]-1H-indole-5-carbonitrile] gave a half-inhibitory concentration (IC50) in the test on Aβ42 (setting [1]) of 275 nM. The response vs control in vivo at 30 mg/kg with Aβ38 was found to be 122%.

The compound `Cc1cn(-c2cc3cc(-c4nc5n(n4)CCCC5c4ccc(F)cc4C)[nH]c3cn2)cn1` (stereo not drawn) [Compound 71, 8-(4-fluoro-2-methylphenyl)-5,6,7,8-tetrahydro-2-[5-(4-methyl-1H-imidazol-1-yl)-1H-pyrrolo[2,3-c]pyridin-2-yl]-[1,2,4]triazolo[1,5-a]pyridine] gave a concentration for half-maximal inhibition (IC50) with Aβ42 (setting [1]) of 65 nM. Besides, the response vs control in vivo at 30 mg/kg in the test with Aβ38 was determined as 115%.

Turning to `COc1c(C#N)ccc2[nH]c(-c3nc4n(n3)CCCC4c3ccc(F)cc3C)cc12` (stereo not drawn) [Compound 59, 2-[8-(4-fluoro-2-methylphenyl)-5,6,7,8-tetrahydro[1,2,4]triazolo[1,5-a]pyridin-2-yl]-4-methoxy-1H-indole-5-carbonitrile], the IC50 with Aβ42 (setting [1]) is 25 nM. Also, in the test on Aβ38, the response vs control in vivo at 30 mg/kg amounted to 91%.

Regarding `Cc1cc(F)ccc1C1CCCn2nc(-c3cc4cc(C#N)ccc4[nH]3)nc21` (stereo not drawn) [Compound 10, 2-[8-(4-fluoro-2-methylphenyl)-5,6,7,8-tetrahydro[1,2,4]triazolo[1,5-a]pyridin-2-yl]-1H-indole-5-carbonitrile], the 50% inhibitory concentration (IC50) in the test on Aβ42 (setting [2]) was 102 nM. In the test on Aβ38 (30 mg/kg), the “Aβ38 (% vs Ctrl)_Mean” value is listed as 115 % vs Ctrl.

In turn, `Cc1cc(F)ccc1C1CCCn2cc(-c3cc4cc(C#N)ccc4[nH]3)nc21` (stereo not drawn) [Compound 64, 2-[8-(4-fluoro-2-methylphenyl)-5,6,7,8-tetrahydroimidazo[1,2-a]pyridin-2-yl]-1H-indole-5-carbonitrile] returned an IC50 in the test on Aβ42 (setting [2]) of 68 nM. Also, in the test with Aβ38 (30 mg/kg), the “Aβ38 (% vs Ctrl)_Mean” value was 122 % vs Ctrl.

`Cc1cn(-c2ccc3[nH]c(-c4nc5n(n4)CCCC5c4ccc(F)cc4C)cc3c2)cn1` (single isomer, unassigned) [Compound 77, 8-(4-fluoro-2-methylphenyl)-5,6,7,8-tetrahydro-2-[5-(4-methyl-1H-imidazol-1-yl)-1H-indol-2-yl]-[1,2,4]triazolo[1,5-a]pyridine] displayed a half-maximal inhibitory concentration (IC50) with Aβ42 (setting [2]) of 24 nM. Also, the response vs control in vivo at 30 mg/kg in the test with Aβ38 was 168%.
